Results on 32 molecules are retold here after patent publication US12162890B2 (Novartis AG, priority 2015, dated 2024).

Each structure is given as a SMILES string.

This experiment has as its target HEK293 cells with stable expression of the GRIN1 gene and tetracycline-inducible expression of the GRIN2B gene (NMDA receptor, NR2B) (Homo sapiens, UniProt Q13224). Put plainly: Fluo-8 Ca2+ flux assay: reversal of Ro 25-6981-mediated suppression of the Ca2+ response to co-agonist (glutamate/glycine). Further: test concentration or dose not given here. The class given is cell-based. The note with it: reversal of the Ro 25-6981 suppression of the Ca2+ response to co-agonist (glutamate/glycine). For orientation: Calcium flux is commonly read through the fluorescence of an indicator in the cells.

Sequence of HEK293 cells with stable expression of the GRIN1 gene and tetracycline-inducible expression of the GRIN2B gene (NMDA receptor, NR2B) (Q13224 27-1484, other chains not shown): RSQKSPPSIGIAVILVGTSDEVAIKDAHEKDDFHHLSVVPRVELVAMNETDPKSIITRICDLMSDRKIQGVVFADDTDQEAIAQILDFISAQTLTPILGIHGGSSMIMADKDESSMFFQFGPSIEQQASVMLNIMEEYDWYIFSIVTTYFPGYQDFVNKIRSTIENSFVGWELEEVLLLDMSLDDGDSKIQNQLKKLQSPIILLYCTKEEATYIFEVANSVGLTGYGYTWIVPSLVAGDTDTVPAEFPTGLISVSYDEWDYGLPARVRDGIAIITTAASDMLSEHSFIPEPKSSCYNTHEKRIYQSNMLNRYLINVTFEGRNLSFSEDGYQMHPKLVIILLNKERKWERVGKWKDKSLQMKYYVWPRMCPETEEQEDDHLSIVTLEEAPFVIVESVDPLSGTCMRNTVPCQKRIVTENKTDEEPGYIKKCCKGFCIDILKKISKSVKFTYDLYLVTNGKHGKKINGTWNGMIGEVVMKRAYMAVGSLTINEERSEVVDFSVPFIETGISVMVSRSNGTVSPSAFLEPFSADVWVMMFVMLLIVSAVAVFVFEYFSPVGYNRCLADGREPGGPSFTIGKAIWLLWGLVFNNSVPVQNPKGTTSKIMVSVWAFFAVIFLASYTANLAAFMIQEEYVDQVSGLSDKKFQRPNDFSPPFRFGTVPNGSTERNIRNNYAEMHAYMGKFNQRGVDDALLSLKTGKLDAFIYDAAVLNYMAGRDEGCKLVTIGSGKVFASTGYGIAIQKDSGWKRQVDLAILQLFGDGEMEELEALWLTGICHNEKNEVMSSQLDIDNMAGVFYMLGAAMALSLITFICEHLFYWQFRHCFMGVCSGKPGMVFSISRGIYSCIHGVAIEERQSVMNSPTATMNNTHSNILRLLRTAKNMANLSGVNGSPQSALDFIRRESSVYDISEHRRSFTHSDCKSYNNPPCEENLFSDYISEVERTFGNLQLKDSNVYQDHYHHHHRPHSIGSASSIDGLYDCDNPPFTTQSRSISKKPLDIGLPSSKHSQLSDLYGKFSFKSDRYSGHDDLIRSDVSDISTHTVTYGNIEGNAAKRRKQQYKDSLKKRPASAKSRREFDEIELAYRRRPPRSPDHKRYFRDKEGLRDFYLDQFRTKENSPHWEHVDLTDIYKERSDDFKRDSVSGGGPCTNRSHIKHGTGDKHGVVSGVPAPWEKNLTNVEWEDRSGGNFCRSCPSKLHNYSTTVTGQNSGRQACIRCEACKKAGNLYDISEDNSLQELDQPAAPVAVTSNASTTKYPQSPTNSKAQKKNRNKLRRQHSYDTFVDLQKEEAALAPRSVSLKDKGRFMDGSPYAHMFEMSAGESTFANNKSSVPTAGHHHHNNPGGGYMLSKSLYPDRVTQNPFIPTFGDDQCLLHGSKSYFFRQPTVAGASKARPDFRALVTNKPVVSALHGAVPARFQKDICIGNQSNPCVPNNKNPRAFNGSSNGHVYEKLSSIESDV

Consider `O=C(Cn1ccc2[nH]cc(-c3cnc(Cl)c(Cl)c3)c2c1=O)N1CC(F)C(F)C1` (centres unmarked) [Example 210, 3-(5,6-dichloropyridin-3-yl)-5-(2-(3,4-difluoropyrrolidin-1-yl)-2-oxoethyl)-1H-pyrrolo[3,2-c]pyridin-4(5H)-one], for which the “Response Recovered (%)” value was 26%.
For `COCn1cc(-c2ccc(Cl)c(Cl)c2)c2c(=O)n(CC(=O)N3CCC(F)C3)ccc21` (centres unmarked) [Example 249, 3-(3,4-dichlorophenyl)-5-(2-(3-fluoropyrrolidin-1-yl)-2-oxoethyl)-1-(methoxymethyl)-1H-pyrrolo[3,2-c]pyridin-4(5H)-one] the value was 70%; for `CC1(F)CN(C(=O)Cn2ccn3ccc(-c4ccc(F)c(Cl)c4)c3c2=O)C1` [Example 397, 8-(3-chloro-4-fluorophenyl)-2-(2-(3-fluoro-3-methylazetidin-1-yl)-2-oxoethyl)pyrrolo[1,2-a]pyrazin-1(2H)-one], 140%.
For `CC1(F)CN(C(=O)Cn2ccn3ncc(-c4ccc(F)c(Cl)c4)c3c2=O)C1` [Example 329, 3-(3-chloro-4-fluorophenyl)-5-(2-(3-fluoro-3-methylazetidin-1-yl)-2-oxoethyl)pyrazolo[1,5-a]pyrazin-4(5H)-one] the value was 110%; for `O=C(Cn1ccc2scc(-c3ccc(F)c(Cl)c3)c2c1=O)N1CC[C@@H](F)C1` [Example 41, (R)-3-(3-chloro-4-fluorophenyl)-5-(2-(3-fluoropyrrolidin-1-yl)-2-oxoethyl)thieno[3,2-c]pyridin-4(5H)-one], 77%.
Then `Cc1cn(CC(=O)N2CCCC2)c(=O)c2c(-c3ccc(Cl)c(C(F)(F)F)c3)csc12` [Example 106, 3-(4-chloro-3-(trifluoromethyl)phenyl)-7-methyl-5-(2-oxo-2-(pyrrolidin-1-yl)ethyl)thieno[3,2-c]pyridin-4(5H)-one], with 76%; and `O=C(Cn1ncc2scc(-c3ccc(Cl)c(C(F)(F)F)c3)c2c1=O)N1CC(F)(F)C1` [Example 339, 3-(4-chloro-3-(trifluoromethyl)phenyl)-5-(2-(3,3-difluoroazetidin-1-yl)-2-oxoethyl)thieno[2,3-d]pyridazin-4(5H)-one], with 20%; and `Cn1cc(-c2ccc(Cl)c(F)c2)c2c(=O)n(CC(=O)N3CC(F)(F)C3)cnc21` [Example 170, 5-(4-chloro-3-fluorophenyl)-3-(2-(3,3-difluoroazetidin-1-yl)-2-oxoethyl)-7-methyl-3H-pyrrolo[2,3-d]pyrimidin-4(7H)-one], with 18%.
Consider `O=C(Cn1cnc2[nH]cc(-c3ccc(Cl)cc3)c2c1=O)N1CC(F)(F)C1` [Example 154, 5-(4-chlorophenyl)-3-(2-(3,3-difluoroazetidin-1-yl)-2-oxoethyl)-3H-pyrrolo[2,3-d]pyrimidin-4(7H)-one], for which the “Response Recovered (%)” value worked out at 36%.
Then `O=C(Cn1ccc2c(c(-c3ccc(F)c(C(F)(F)F)c3)cn2CO)c1=O)N1CCC(F)C1` (centres unmarked) [Example 260, 3-(4-fluoro-3-(trifluoromethyl)phenyl)-5-(2-(3-fluoropyrrolidin-1-yl)-2-oxoethyl)-1-(hydroxymethyl)-1H-pyrrolo[3,2-c]pyridin-4(5H)-one], with 68%.
Take `CC(C)(O)c1cn(CC(=O)N2CCC(F)C2)c(=O)c2c(-c3ccc(F)c(C(F)(F)F)c3)csc12` (centres unmarked) [Example 133, 3-(4-fluoro-3-(trifluoromethyl)phenyl)-5-(2-(3-fluoropyrrolidin-1-yl)-2-oxoethyl)-7-(2-hydroxypropan-2-yl)thieno[3,2-c]pyridin-4(5H)-one]: the “Response Recovered (%)” value is 9.9%.
Then `O=C(Cn1ccc2scc(-c3ccc(Cl)c(C(F)(F)F)c3)c2c1=O)N1C[C@@H](F)[C@@H](F)C1` [Example 14, 3-(4-chloro-3-(trifluoromethyl)phenyl)-5-(2-((3S,4R)-3,4-difluoropyrrolidin-1-yl)-2-oxoethyl)thieno[3,2-c]pyridin-4(5H)-one], with 99%; and `CC1(F)CN(C(=O)Cn2ccc3scc(-c4ccc(F)c(F)c4)c3c2=O)C1` [Example 20, 3-(3,4-difluorophenyl)-5-(2-(3-fluoro-3-methylazetidin-1-yl)-2-oxoethyl)thieno[3,2-c]pyridin-4(5H)-one], with 41%; and `O=C(Cn1ccc2ncc(-c3ccc(F)c(Cl)c3)n2c1=O)N1CCC(F)C1` (centres unmarked) [Example 451, 3-(3-chloro-4-fluorophenyl)-6-(2-(3-fluoropyrrolidin-1-yl)-2-oxoethyl)imidazo[1,2-c]pyrimidin-5(6H)-one], with 23%.
For `O=C(Cn1cnc2c(c(-c3ccc(Cl)c(F)c3)cn2CCF)c1=O)N1CCCC1` [Example 173, 5-(4-chloro-3-fluorophenyl)-7-(2-fluoroethyl)-3-(2-oxo-2-(pyrrolidin-1-yl)ethyl)-3H-pyrrolo[2,3-d]pyrimidin-4(7H)-one] the value was 32%.
For `Cc1cc(-c2csc3ccn(CC(=O)N4CC(C)(F)C4)c(=O)c23)ccc1F` [Example 23, 5-(2-(3-fluoro-3-methylazetidin-1-yl)-2-oxoethyl)-3-(4-fluoro-3-methylphenyl)thieno[3,2-c]pyridin-4(5H)-one] the value was 100%.
For `Cc1cc(-c2csc3ccn(CC(=O)N4CC(C)(F)C4)c(=O)c23)ccc1Cl` [Example 22, 3-(4-chloro-3-methylphenyl)-5-(2-(3-fluoro-3-mehtylazetidin-1-yl)-2-oxoethyl)thieno[3,2-c]pyridin-4(5H)-one], the “Response Recovered (%)” value is on record as 130%.
For `O=C(Cn1cnc2occ(-c3ccc(Cl)cc3)c2c1=O)N1CCCC1` [Example 388, 5-(4-chlorophenyl)-3-(2-oxo-2-(pyrrolidin-1-yl)ethyl)furo[2,3-d]pyrimidin-4(3H)-one] the value was 8%; for `O=C(Cn1cnc2c(c(-c3ccc(F)c(Cl)c3)cn2CCF)c1=O)N1CCCC1` [Example 172], 40%; for `O=C(Cn1ccc2c(c(-c3ccc(F)c(Cl)c3)cn2-c2ccncn2)c1=O)N1CCC(F)C1` (centres unmarked) [Example 248], 59%.
For `O=C(Cn1ccc2cccc(-c3ccc(Cl)c(C(F)(F)F)c3)c2c1=O)N1CC(F)(F)C1` [Example 301, 8-(4-chloro-3-(trifluoromethyl)phenyl)-2-(2-(3,3-difluoroazetidin-1-yl)-2-oxoethyl)isoquinolin-1(2H)-one] the value was 28%; for `O=C(Cn1cnc2occ(-c3ccc(Cl)cc3)c2c1=O)N1CC(F)(F)C1` [Example 389, 5-(4-chlorophenyl)-3-(2-(3,3-difluoroazetidin-1-yl)-2-oxoethyl)furo[2,3-d]pyrimidin-4(3H)-one], 8%.
Then `O=C(Cn1ccc2c(c(-c3ccc(F)c(Cl)c3)cn2C2CC2)c1=O)N1CCC(F)C1` (centres unmarked) [Example 232, 3-(3-chloro-4-fluorophenyl)-1-cyclopropyl-5-(2-(3-fluoropyrrolidin-1-yl)-2-oxoethyl)-1H-pyrrolo[3,2-c]pyridin-4(5H)-one], with 66%; and `Cn1cnc(-n2cc(-c3ccc(Cl)c(Cl)c3)c3c(=O)n(CC(=O)N4CC(C)(F)C4)ccc32)n1` [Example 270, 3-(3,4-dichlorophenyl)-5-(2-(3-fluoro-3-methylazetidin-1-yl)-2-oxoethyl)-1-(1-methyl-1H-1,2,4-triazol-3-yl)-1H-pyrrolo[3,2-c]pyridin-4(5H)-one], with 130%; and `O=C(Cn1cnc2[nH]cc(-c3ccc(F)c(Cl)c3)c2c1=O)N1CCC(F)C1` (centres unmarked) [Example 178, 5-(3-chloro-4-fluorophenyl)-3-(2-(3-fluoropyrrolidin-1-yl)-2-oxoethyl)-3H-pyrrolo[2,3-d]pyrimidin-4(7H)-one], with 54%.
For `O=C(Cn1ccc2scc(-c3ccc(F)c(Cl)c3)c2c1=O)N1CCC(F)C1` (centres unmarked) [Example 9, 3-(3-Chloro-4-fluoro-phenyl)-5-[2-(3-fluoro-pyrrolidin-1-yl)-2-oxo-ethyl]-5H-thieno[3,2-c]pyridin-4-one], the “Response Recovered (%)” value came to 81%.
Then `COCc1cn(CC(=O)N2CCC(F)C2)c(=O)c2c(-c3ccc(F)c(C(F)(F)F)c3)csc12` (centres unmarked) [Example 126, 3-(4-fluoro-3-(trifluoromethyl)phenyl)-5-(2-(3-fluoropyrrolidin-1-yl)-2-oxoethyl)-7-(methoxymethyl)thieno[3,2-c]pyridin-4(5H)-one], with 46%.
Then `N=C(NO)c1cn(CC(=O)N2CCCC2)c(=O)c2c(-c3ccc(F)c(C(F)(F)F)c3)csc12` [Example 108, 3-(4-fluoro-3-(trifluoromethyl)phenyl)-N-hydroxy-4-oxo-5-(2-oxo-2-(pyrrolidin-1-yl)ethyl)-4,5-dihydrothieno[3,2-c]pyridine-7-carboximidamide], with 64%; and `CC1(F)CN(C(=O)Cn2ccn3c(C4CC4)nc(-c4ccc(F)c(Cl)c4)c3c2=O)C1` [Example 436, 1-(3-chloro-4-fluorophenyl)-3-cyclopropyl-7-(2-(3-fluoro-3-methylazetidin-1-yl)-2-oxoethyl)imidazo[1,5-a]pyrazin-8(7H)-one], with 100%.
In the case of `Cc1cn(CC(=O)N2CC(F)(CF)C2)c(=O)c2c(-c3cnc(Cl)c(Cl)c3)ccn12` [Example 421, 8-(5,6-dichloropyridin-3-yl)-2-(2-(3-fluoro-3-(fluoromethyl)azetidin-1-yl)-2-oxoethyl)-4-methylpyrrolo[1,2-a]pyrazin-1(2H)-one], the “Response Recovered (%)” value came to 92%.
For the molecule `O=C(Cn1cnc2csc(-c3ccc(Cl)cc3)c2c1=O)N1CCC(F)(F)CC1` [Example 353, 5-(4-chlorophenyl)-3-(2-(4,4-difluoropiperidin-1-yl)-2-oxoethyl)thieno[3,4-d]pyrimidin-4(3H)one], the “Response Recovered (%)” value was determined as 1%.
For `CCC1(F)CN(C(=O)Cn2ccc3scc(-c4cnc(Cl)c(Cl)c4)c3c2=O)C1` [Example 75, 3-(5,6-dichloropyridin-3-yl)-5-(2-(3-ethyl-3-fluoroazetidin-1-yl)-2-oxoethyl)thieno[3,2-c]pyridin-4(5H)-one] the value was 78%.
